Assay results published in the supplement of paper PMC10307832.

Key:
Assay in all cases: relative viability (nuclei count vs DMSO), 5 days (fraction); higher = more cells survive
[1] = compound: Cn1c(=O)n(-c2ccc(C(C)(C)C#N)cc2)c2c3cc(-c4cnc5ccccc5c4)ccc3ncc21 [Dactolisib] + C[C@@H](Oc1cc(-c2cnn(C3CCNCC3)c2)cnc1N)c1c(Cl)ccc(F)c1Cl [Crizotinib] (partner 1 µM)
Method in brief: (§1)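 Medians of duplicate plates are given as relative viability. That measure is the nuclei count in treated wells divided by the count in vehicle wells. Counts were taken on 4× images of lung cancer cell lines in 1536-well plates, 5 days after pin-tool dosing the day after seeding with one drug alone or a fixed anchor-drug dose plus five library-drug doses (not always all listed) in √10 steps.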

[2] = compound: Cn1c(=O)n(-c2ccc(C(C)(C)C#N)cc2)c2c3cc(-c4cnc5ccccc5c4)ccc3ncc21 [Dactolisib] + Nc1nc2[nH]cc(CCc3ccc(C(=O)N[C@@H](CCC(=O)O)C(=O)O)cc3)c2c(=O)[nH]1 [Pemetrexed] (partner 0.2 µM)
Method in brief: as §1

[3] = compound: C1CCC(CC1)N(CCNCCC2=C3C(=C(C=C2)O)NC(=O)CO3)C(=O)CCNCCC4=CC(=C(C=C4)Cl)Cl [AZ505] + Cc1cc(Nc2cc(N3CCN(C)CC3)nc(Sc3ccc(NC(=O)C4CC4)cc3)n2)n[nH]1 [Tozasertib] (partner 0.1 µM)
Method in brief: as §1

[4] = compound: Cn1c(=O)n(-c2ccc(C(C)(C)C#N)cc2)c2c3cc(-c4cnc5ccccc5c4)ccc3ncc21 [Dactolisib] + CC1(C)CCC(c2ccc(Cl)cc2)=C(CN2CCN(c3ccc(C(=O)NS(=O)(=O)c4ccc(N[C@H](CCN5CCOCC5)CSc5ccccc5)c(S(=O)(=O)C(F)(F)F)c4)cc3)CC2)C1 [Navitoclax] (partner 0.5 µM)
Method in brief: as §1

Row | Cell Line | relative viability ([1]; first compound 0.002 µM) | relative viability ([1]; first compound 0.006325 µM) | relative viability ([1]; first compound 0.02 µM) | relative viability ([1]; first compound 0.06325 µM) | relative viability ([1]; first compound 0.2 µM) | relative viability ([2]; first compound 0.002 µM) | relative viability ([2]; first compound 0.006325 µM) | relative viability ([2]; first compound 0.02 µM) | relative viability ([2]; first compound 0.06325 µM) | relative viability ([2]; first compound 0.2 µM) | relative viability ([3]; first compound 0.08 µM) | relative viability ([3]; first compound 0.253 µM) | relative viability ([3]; first compound 0.8 µM) | relative viability ([3]; first compound 2.53 µM) | relative viability ([3]; first compound 8 µM) | relative viability ([4]; first compound 0.002 µM) | relative viability ([4]; first compound 0.006325 µM) | relative viability ([4]; first compound 0.02 µM) | relative viability ([4]; first compound 0.06325 µM) | relative viability ([4]; first compound 0.2 µM)
1 | NCI-H2085 | 0.904 | 0.763 | 0.668 | 0.523 | 0.305 | 0.905 | 0.884 | 0.811 | 0.345 | 0.273 | 0.663 | 0.786 | 0.823 | 0.825 | 0.891 | 1.17 | 1.01 | 0.89 | 0.584 | 0.367
2 | NCI-H441 | 0.923 | 0.64 | 0.554 | 0.496 | 0.271 | 0.24 | 0.266 | 0.24 | 0.221 | 0.25 | 0.564 | 0.546 | 0.625 | 0.534 | 0.589 | 0.851 | 0.416 | 0.577 | 0.237 | 0.303
3 | LOU-NH91 | 0.718 | 0.715 | 0.698 | 0.593 | 0.515 | 0.287 | 0.377 | 0.372 | 0.431 | 0.445 | 0.654 | 0.696 | 0.577 | 0.591 | 0.625 | 0.547 | 0.6 | 0.646 | 0.431 | 0.385
4 | NCI-H3122 | 0.284 | 0.297 | 0.228 | 0.213 | 0.217 | 0.171 | 0.189 | 0.203 | 0.192 | 0.211 | 0.381 | 0.401 | 0.436 | 0.355 | 0.411 | 1.02 | 1.05 | 0.993 | 0.809 | 0.491
5 | NCI-H460 | 1.09 | 0.835 | 0.513 | 0.136 | 0.0929 | 0.0654 | 0.0618 | 0.0641 | 0.0892 | 0.0591 | 0.481 | 0.0927 | 0.551 | 0.204 | 0.299 | 1.21 | 1.02 | 1.16 | 0.169 | 0.0342
6 | NCI-H1734 | 0.634 | 0.578 | 0.454 | 0.333 | 0.164 | 0.335 | 0.436 | 0.415 | 0.36 | 0.317 | 0.259 | 0.276 | 0.243 | 0.219 | 0.215 | 0.839 | 0.647 | 0.743 | 0.275 | 0.234
7 | LXF-289 | 0.822 | 0.779 | 0.896 | 0.942 | 0.708 | 0.921 | 0.886 | 0.964 | 1.02 | 0.619 | 0.2 | 0.172 | 0.183 | 0.21 | 0.229 | 1.02 | 0.932 | 1 | 0.828 | 0.571
